SMILES strings stand for the structures.

The text below walks through data of ChEMBL document CHEMBL1152177, “Imidazole pyrimidine amides as potent, orally bioavailable cyclin-dependent kinase inhibitors” (Bioorg Med Chem Lett, 2008).

The nature of data set [1]: Half life in nude mouse at 2.0 umol/kg, iv. It is filed as ADME, organism-based. To be noted: in vivo.
A short description of data set [2]: Clearance in nude mouse at 2.0 umol/kg, iv. The data set is classed as ADME, organism-based. To be noted: in vivo.
Data set [3] in a line: Volume of distribution at steady state in nude mouse at 2.0 umol/kg, iv. The data set is classed as ADME, organism-based. The following applies: in vivo, read-out: Vdss.
Data set [4] can be described thus: AUC in nude mouse at 2.0 umol/kg, iv. To be noted: plasma. The data set is classed as ADME, organism-based.
Data set [5] in a line: Half life in Han-Wistar rat at 1.0 umol/kg, iv. The data set is classed as ADME, organism-based. To be noted: in vivo.
Data set [6] in a line: Clearance in Han-Wistar rat at 1.0 umol/kg, iv. It is filed as ADME, organism-based. The following applies: in vivo.
Data set [7] is described as follows: Volume of distribution at steady state in Han-Wistar rat at 1.0 umol/kg, iv. It is filed as ADME, organism-based. To be noted: in vivo, read-out: Vdss.
Data set [8] can be described thus: AUC in Han-Wistar rat at 1.0 umol/kg, iv. To be noted: plasma. It is filed as ADME, organism-based.
Data set [9] in a line: AUC in Han-Wistar rat at 5 umol/kg, po. The data set is classed as ADME, organism-based. To be noted: plasma.
The nature of data set [10]: Bioavailability in Han-Wistar rat at 5 umol/kg, po. It is filed as ADME, organism-based. The following applies: in vivo.
The nature of data set [11]: AUC in Han-Wistar rat at 20 umol/kg, po. It is filed as ADME, organism-based. To be noted: plasma.
Data set [12] is described as follows: Bioavailability in Han-Wistar rat at 20 umol/kg, po. The data set is classed as ADME, organism-based. To be noted: in vivo.
The nature of data set [13]: Distribution coefficient, log D of the compound. To be noted: octanol/water. It is filed as physicochemical.

As to `CNC(=O)c1ccc(Nc2nccc(-c3cnc(C)n3C(C)C)n2)cc1F`, the values for the half-life in data set [1] and in [5] were 16.7 h and 5.8 h, respectively. Also, the clearance in data set [2] came to 18.5 mL/min/kg; in data set [6], 11.9 mL/min/kg. Also, the Vd came to 9.5 L/kg in data set [3] and 1.7 L/kg in [7]. The AUC in [4] turned out to be 1.8 µM·h; in data set [8] it was 1.4 µM·h; in [9], 1.5 µM·h; in data set [11], 13.7 µM·h. Moreover, the bioavailability came to 21% in data set [10] and 47% in data set [12]. Also, in data set [13], the logD worked out at 3.

One may read the half-life as the time in which the quantity being followed falls by half. High values mean slow decline, low ones rapid decline. A word on the clearance: it is a measure of how efficiently the substance is removed, as volume per time. A lower clearance goes with a low capacity for elimination. For orientation: AUC means concentration integrated over time. A lower AUC goes with low exposure. What is called bioavailability is the share of a dose that reaches the circulation, judged against a reference dose that is usually intravenous. Lower therefore signals little systemic uptake. A word on the logD: it is lipophilicity at a set pH, counting ionised and neutral species. Read a high logD as higher lipophilicity.
